# Literature values in US20060083768A1, “Method of thickening a coating using a drug” (ATRIUM MEDICAL CORPORATION, priority 2004, published 2006).
# Tested on: Porcine Coronary Model
# Settings: stents coated with agent solubilized in eicosapentaenoic acid oil vs eicosapentaenoic acid oil coated stents
structure (smiles),measurement,value
C=C1[C@@H](C)[C@H]2[C@H](Cc3ccccc3)NC(=O)[C@]23[C@H](OC(C)=O)/C=C/[C@@](C)(O)C(=O)[C@@H](C)C/C=C/[C@H]3[C@@H]1O [cytochalasin D],less area stenosis compared to the control group,38%
same,less intimal hyperplasia compared to the control group,39%
